Columns and labels:
[1] = system: mixed cultured strain of Examples 2, 6 and 7; assay: Microbial growth promotion of biosurfactant 2-hexyl-3-hydroxy-decanoic acid (cfu per ml after culture); format: cell-based; settings: 0.1 in composition of Examples 16 and 17
Experimental: These examples relate to an experiment of confirming whether the growth of microorganisms having oil biodegradability is promoted due to the addition of biosurfactant 2-hexyl-3-hydroxy-decanoic acid.
In this experiment, the mixed cultured strain of Examples 2, 6 and 7 was added to tryptic soy broth (TSB) and then cultured for 13 hours. In the culture process, the microbial strain was added into a 100-ml flask at an initial concentration of 4.9×10^6 cfu/ml to a work volume of 10 ml, and the inoculation level of the strain was 1% (w/v), i.e., 0.1 ml.
In Comparative Examples 7-10 and Examples 16 and 17, the microbial strain was cultured in media (10 g/L) at 30° C. for 24 hours, and then measured for colony-forming units (cfu) per ml to determine the degree of proliferation of microorganisms.
Specifically, a composition used in Comparative Examples 7-10 consisted of glucose, yeast extract, malt extract, Na2HPO4, KH2PO4, K2HPO4, MgSO4, CaCl2, FeSO4, CoCl2, ZnSO4, CuSO4 and MnSO4, and a composition used in Examples 16 and 17 consisted of glucose, yeast extract, malt extract, Na2HPO4, KH2PO4, K2HPO4, MgSO4, CaCl2, FeSO4, CoCl2, ZnSO4, CuSO4 and MnSO4, to which the biosurfactant 2-hexyl-3-hydroxy-decanoic acid was added.

[2] = system: Rodococcus baikoneurensis EN3; assay: Biosurfactant's ability to increase diesel oil degradation by Rodococcus baikoneurensis EN3; format: cell-based; settings: initial diesel 20,000 ppm; acid 10 ppm, 50 ppm and 100 ppm; about 30% without acid
Experimental: (§1) For this reason, 2-hexyl-3-hydroxy-decanoic acid having 16 carbon atoms according to the present invention was added liquid media each containing 10,000 ppm or 20,000 ppm of diesel oil and mineral medium (NH4NO3, 1 g/L; MgSO4, 0.2 g/L; CaCl2, 0.02 g/L; FeCl2, 0.05 g/L; KH2PO4, 1 g/L; K2HPO4, 1 g/L; pH 7.0). Then, the media were inoculated with each of Rodococcus baikoneurensis EN3 of Example 2 and Gordonia nitida NP1 of Example 6 and cultured at 30° C. for 7 days. Then, an increase in the oil biodegradability of each of the microbial strains was measured using gas chromatography.
FIG. 9 is a graphic diagram showing an increase in the diesel oil degradability of Rodococcus baikoneurensis EN3, caused by the synthetic biosurfactant 2-hexyl-3-hydroxy-decanoic acid, at an initial diesel concentration of 20,000 ppm. In FIG. 9, the initial inoculation level of Rodococcus baikoneurensis EN3 is 6×10^4 cfu/ml, and the initial concentration of diesel oil is 20,000 ppm. Also, the initial concentrations of 2-hexyl-3-hydroxy-decanoic acid are 10 ppm (∘), 50 ppm (□) and 100 ppm (Δ), the symbol “•” indicates a microorganism-uninoculated group (control group 1), and the symbol “▪” indicates a group (control group 2), which was inoculated with microorganisms, but not injected with 2-hexyl-3-hydroxy-decanoic acid.

[3] = system: Gordonia nitida NP1; assay: Biosurfactant's ability to increase diesel oil degradation by Gordonia nitida NP1; format: cell-based; settings: acid 9 ppm
Experimental: as §1
FIG. 10 is a graphic diagram showing an increase in the diesel oil degradability of Gordonia nitida NP1, caused by the synthetic biosurfactant 2-hexyl-3-hydroxy-decanoic acid, at an initial diesel concentration of 15,000 ppm. In FIG. 10, the initial inoculation level of […] is 6×10^4 cfu/ml, and the initial concentration of diesel oil is 15,000 ppm. Also, the initial concentrations of 2-hexyl-3-hydroxy-decanoic acid were 9 ppm (▾), 90 ppm (∇) and 900 ppm (▪), the symbol “[…]” indicates a microorganism-uninoculated group (control group 1), and the symbol “∘” indicates a group (control group 2), which was inoculated with microorganisms, but not injected with 2-hexyl-3-hydroxy-decanoic acid. […]

[4] = Critical micelle concentration; format: physicochemical

critical micelle concentration (cmc) [4]: 37.1 ppm
Compound: CCCCCCCC(O)C(CCCCCC)C(=O)O (centres unmarked) [2-hexyl-3-hydroxy-decanoic acid]
effect of addition on growth of the microorganisms [1]: promotion of growth
oil biodegradation rate of the microbial strain with acid added [2]: about 70%
change in diesel oil degradation rate of the microbial strain with acid added ([3]; 90 ppm and 900 ppm, initial diesel 15,000 ppm and 20,000 ppm (FIGS. 10, 11)): great increase
change in oil degradation rate of the microbial strain with acid added ([3]; initial diesel 20,000 ppm): did not show an increase
